Residues, ends and D or L forms follow the SMILES beside them.
What was measured:
C72 anti-DNA antibody = assay: Competitive inhibition of C72 binding to R38 (5100); design: species or system mouse; conditions: concentration of competitive inhibitor, ELISA
From the text: A competitive inhibition study compared how each of the peptides competes with R38 (5100) for binding to the C72 anti-DNA antibody. Conducted according to the methods described hereinabove, the results of the study are disclosed in Table 4 below and are further elucidated by reference to FIG. 10.

[1] = tested on: B3 human anti-DNA antibody; assay: Direct binding ELISA of B3 to laminin peptides; conditions: direct binding ELISA test after two (2) hours
Procedure: (§1) The C72 murine anti-DNA antibody has been derived from (NZB×NZW)F1 lupus mice by the hybridoma technique as described in Eilat D. et al J. Immunol. […] The monoclonal anti-DNA antibodies DIL6 and B3 were derived from lupus patients by hybridoma technique as described in Ehrenstein M. R. et al J. Clin. Invest. (1994) 93 1787-1799 and Ehrenstein M. R. et al Kidney Inter. (1995) 48 705-711.
(§2) Wells were coated with 10 μg/ml of the peptides, blocked with 1% BSA (bovine serum albumin) in PBS (pH 7,4), reacted with appropriately diluted serum or urine samples or monoclonal antibodies, incubated with anti-human or anti-mouse immunoglobulin enzyme conjugated to alkaline phosphatase and detected by addition of substrate (Sigma 100 Phosphatase Substrate Tablets) and color development using an Organon Teknika Microwell System spectrometer at wavelength of 405 nm.
The human monoclonal anti-DNA antibodies DIL 6 and B3 were derived from lupus patients by the hybridoma technique. […] In FIGS. 3 and 4, the peptides are referred to as denoted above or as follows; AS30 is R27, AS19 is R35 AS35 is R26, AS17 is R28 and AS6 is R18.
(§3) The peptides of the present invention were tested for their ability to bind directly with C72 murine anti-DNA antibodies and B3 human anti-DNA antibodies according to the method described hereinabove.

[2] = tested on: C72 murine anti-DNA antibody; assay: Direct binding ELISA of C72 to laminin peptides; design: species or system mouse; conditions: direct binding ELISA test after one (1) hour
Procedure: as §1, §2
The interaction of the C72 murine anti-DNA antibody with laminin peptides was analyzed by ELISA as described above. The C72 conditioned medium was diluted in PBS in various dilutions.
as §3

50% Inhibition of C72 binding to mouse R38 (5100) (C72 anti-DNA antibody): 85 µg/mL
B3 Binding [1]: 0.03 O.D.
C72 Binding [2]: 0.03 O.D.
Compound: CC[C@H](C)[C@H](NC(=O)[C@H](CC(N)=O)NC(=O)[C@@H](NC(=O)[C@H](CC(=O)O)NC(=O)[C@H](CO)NC(=O)[C@H](CCC(N)=O)NC(=O)[C@@H](NC(=O)[C@H](CCCCN)NC(=O)[C@H](Cc1ccc(O)cc1)NC(=O)CNC(=O)[C@H](CCC(=O)O)NC(=O)[C@@H](N)CCCCN)C(C)C)C(C)C)C(=O)N[C@H](C(=O)N[C@@H](CC(C)C)C(=O)N[C@@H](CCC(=O)O)C(=O)N[C@@H](Cc1ccccc1)C(=O)N[C@@H](CCCNC(=N)N)C(=O)N[C@H](C(=O)N[C@@H](CO)C(=O)N[C@@H](CO)C(=O)N[C@@H](CCC(N)=O)C(=O)O)[C@@H](C)O)[C@@H](C)O [Peptide 5300] (H-KEGYKVQSDVNITLEFRTSSQ-OH; N-terminus and C-terminus assumed)
